According to the supplement of paper PMC10307832:

How the values were obtained:
Assay in all cases: relative viability (nuclei count vs DMSO), 5 days (fraction); higher = more cells survive
BEN = tested on: BEN
Method in brief: (§1)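 Lung cancer cell lines in 1536-well plates got either a single drug or a fixed anchor-drug dose together with five library-drug doses (not always all listed) in √10 steps, by pin tool, on the day after seeding. Nuclei were counted after 5 days, and relative viability is the treated-to-vehicle ratio of nuclei counts. Values are medians of duplicate plates.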

EKVX = tested on: EKVX
Method in brief: as §1

HARA = tested on: HARA
Method in brief: as §1

HCC-366 = tested on: HCC-366
Method in brief: as §1

HCC-827 = tested on: HCC-827
Method in brief: as §1

LOU-NH91 = tested on: LOU-NH91
Method in brief: as §1

NCI-H1355 = tested on: NCI-H1355
Method in brief: as §1

NCI-H1437 = tested on: NCI-H1437
Method in brief: as §1

NCI-H1734 = tested on: NCI-H1734
Method in brief: as §1

NCI-H1792 = tested on: NCI-H1792
Method in brief: as §1

NCI-H1993 = tested on: NCI-H1993
Method in brief: as §1

NCI-H2009 = tested on: NCI-H2009
Method in brief: as §1

NCI-H2087 = tested on: NCI-H2087
Method in brief: as §1

NCI-H2405 = tested on: NCI-H2405
Method in brief: as §1

NCI-H647 = tested on: NCI-H647
Method in brief: as §1

NCI-H661 = tested on: NCI-H661
Method in brief: as §1

SK-LU-1 = tested on: SK-LU-1
Method in brief: as §1

For `CC(=O)O[C@@]12CO[C@@H]1C[C@H](O)[C@@]1(C)C(=O)[C@H](O)C3=C(C)[C@@H](OC(=O)[C@H](O)[C@@H](NC(=O)OC(C)(C)C)c4ccccc4)C[C@@](O)([C@@H](OC(=O)c4ccccc4)[C@H]21)C3(C)C` [Docetaxel] + CC(C)C[C@H](NC(=O)[C@H](Cc1ccccc1)NC(=O)c1cnccn1)B(O)O [Bortezomib] (partner 0.002 µM), the relative viability (BEN; first compound 0.0002 µM) was 0.612, the relative viability (BEN; first compound 0.000632 µM) was 0.644 and the relative viability (BEN; first compound 0.002 µM) was 0.341. It also gave a relative viability (BEN; first compound 0.006325 µM) of 0.263, a relative viability (BEN; first compound 0.02 µM) of 0.164 and a relative viability (EKVX; first compound 0.0002 µM) of 1.05. For the same compound, the relative viability (EKVX; first compound 0.000632 µM) was 0.718, the relative viability (EKVX; first compound 0.002 µM) was 0.429 and the relative viability (EKVX; first compound 0.006325 µM) was 0.269. The relative viability (EKVX; first compound 0.02 µM) was 0.152, the relative viability (HARA; first compound 0.0002 µM) was 1.04 and the relative viability (HARA; first compound 0.000632 µM) was 0.372. The relative viability (HARA; first compound 0.002 µM) was 0.376, the relative viability (HARA; first compound 0.006325 µM) was 0.118 and the relative viability (HARA; first compound 0.02 µM) was 0.0895. For the same compound, the relative viability (HCC-366; first compound 0.0002 µM) was 1.07, the relative viability (HCC-366; first compound 0.000632 µM) was 0.267 and the relative viability (HCC-366; first compound 0.002 µM) was 0.144. The relative viability (HCC-366; first compound 0.006325 µM) was 0.0171, the relative viability (HCC-827; first compound 0.0002 µM) was 0.891 and the relative viability (HCC-827; first compound 0.000632 µM) was 0.962. For the same compound, the relative viability (HCC-827; first compound 0.002 µM) was 1, the relative viability (HCC-827; first compound 0.006325 µM) was 0.562 and the relative viability (HCC-827; first compound 0.02 µM) was 0.328. For the same compound, the relative viability (LOU-NH91; first compound 0.0002 µM) was 0.483, the relative viability (LOU-NH91; first compound 0.000632 µM) was 0.46 and the relative viability (LOU-NH91; first compound 0.002 µM) was 0.4. For the same compound, the relative viability (LOU-NH91; first compound 0.006325 µM) was 0.337, the relative viability (LOU-NH91; first compound 0.02 µM) was 0.345 and the relative viability (NCI-H1355; first compound 0.0002 µM) was 1.2. It also gave a relative viability (NCI-H1355; first compound 0.000632 µM) of 1.14, a relative viability (NCI-H1355; first compound 0.002 µM) of 0.673 and a relative viability (NCI-H1355; first compound 0.006325 µM) of 0.302. The relative viability (NCI-H1355; first compound 0.02 µM) was 0.224, the relative viability (NCI-H1437; first compound 0.0002 µM) was 0.472 and the relative viability (NCI-H1437; first compound 0.000632 µM) was 0.322. It also gave a relative viability (NCI-H1437; first compound 0.002 µM) of 0.215, a relative viability (NCI-H1437; first compound 0.006325 µM) of 0.145 and a relative viability (NCI-H1437; first compound 0.02 µM) of 0.104. It also gave a relative viability (NCI-H1734; first compound 0.0002 µM) of 0.865, a relative viability (NCI-H1734; first compound 0.000632 µM) of 0.577 and a relative viability (NCI-H1734; first compound 0.002 µM) of 0.323. For the same compound, the relative viability (NCI-H1734; first compound 0.006325 µM) was 0.325, the relative viability (NCI-H1734; first compound 0.02 µM) was 0.222 and the relative viability (NCI-H1792; first compound 0.0002 µM) was 0.951. It also gave a relative viability (NCI-H1792; first compound 0.000632 µM) of 0.82, a relative viability (NCI-H1792; first compound 0.002 µM) of 0.6 and a relative viability (NCI-H1792; first compound 0.02 µM) of 0.12. For the same compound, the relative viability (NCI-H1993; first compound 0.0002 µM) was 0.961, the relative viability (NCI-H1993; first compound 0.000632 µM) was 1.06 and the relative viability (NCI-H1993; first compound 0.002 µM) was 0.798. The relative viability (NCI-H1993; first compound 0.006325 µM) was 0.608, the relative viability (NCI-H1993; first compound 0.02 µM) was 0.399 and the relative viability (NCI-H2009; first compound 0.0002 µM) was 0.99. It also gave a relative viability (NCI-H2009; first compound 0.000632 µM) of 1.01, a relative viability (NCI-H2009; first compound 0.002 µM) of 0.914 and a relative viability (NCI-H2009; first compound 0.006325 µM) of 0.263. The relative viability (NCI-H2009; first compound 0.02 µM) was 0.178, the relative viability (NCI-H2087; first compound 0.0002 µM) was 0.701 and the relative viability (NCI-H2087; first compound 0.000632 µM) was 0.665. For the same compound, the relative viability (NCI-H2087; first compound 0.002 µM) was 0.28, the relative viability (NCI-H2087; first compound 0.006325 µM) was 0.224 and the relative viability (NCI-H2087; first compound 0.02 µM) was 0.142. For the same compound, the relative viability (NCI-H2405; first compound 0.0002 µM) was 0.988, the relative viability (NCI-H2405; first compound 0.000632 µM) was 0.956 and the relative viability (NCI-H2405; first compound 0.002 µM) was 0.681. The relative viability (NCI-H2405; first compound 0.006325 µM) was 0.394, the relative viability (NCI-H2405; first compound 0.02 µM) was 0.308 and the relative viability (NCI-H647; first compound 0.0002 µM) was 0.762. The relative viability (NCI-H647; first compound 0.000632 µM) was 0.23, the relative viability (NCI-H647; first compound 0.002 µM) was 0.113 and the relative viability (NCI-H647; first compound 0.006325 µM) was 0.123. For the same compound, the relative viability (NCI-H647; first compound 0.02 µM) was 0.0811, the relative viability (NCI-H661; first compound 0.0002 µM) was 0.702 and the relative viability (NCI-H661; first compound 0.000632 µM) was 0.784. It also gave a relative viability (NCI-H661; first compound 0.002 µM) of 0.68, a relative viability (NCI-H661; first compound 0.006325 µM) of 0.634 and a relative viability (NCI-H661; first compound 0.02 µM) of 0.224. The relative viability (SK-LU-1; first compound 0.0002 µM) was 0.951, the relative viability (SK-LU-1; first compound 0.000632 µM) was 0.392 and the relative viability (SK-LU-1; first compound 0.002 µM) was 0.307. It also gave a relative viability (SK-LU-1; first compound 0.006325 µM) of 0.267 and a relative viability (SK-LU-1; first compound 0.02 µM) of 0.208.
